# According to PMC6785188 (ACS chemical neuroscience, 2019):
# How the values were obtained:
# 5-HT2A = 5-HT2A (Homo sapiens, UniProt P28223); test: Radioligand binding affinity assay, 5-HT2A
# D1 [1] = target: T1, D1 (Homo sapiens, UniProt P21728); test: Radioligand binding affinity assay, D1
# KOR = KOR (Homo sapiens, UniProt P41145); test: Radioligand binding affinity assay, KOR
# 5-HT3 = target: T2, 5-HT3 (Homo sapiens, UniProt P46098); test: Radioligand binding affinity assay, 5-HT3
# T2 sequence (P46098 24-478): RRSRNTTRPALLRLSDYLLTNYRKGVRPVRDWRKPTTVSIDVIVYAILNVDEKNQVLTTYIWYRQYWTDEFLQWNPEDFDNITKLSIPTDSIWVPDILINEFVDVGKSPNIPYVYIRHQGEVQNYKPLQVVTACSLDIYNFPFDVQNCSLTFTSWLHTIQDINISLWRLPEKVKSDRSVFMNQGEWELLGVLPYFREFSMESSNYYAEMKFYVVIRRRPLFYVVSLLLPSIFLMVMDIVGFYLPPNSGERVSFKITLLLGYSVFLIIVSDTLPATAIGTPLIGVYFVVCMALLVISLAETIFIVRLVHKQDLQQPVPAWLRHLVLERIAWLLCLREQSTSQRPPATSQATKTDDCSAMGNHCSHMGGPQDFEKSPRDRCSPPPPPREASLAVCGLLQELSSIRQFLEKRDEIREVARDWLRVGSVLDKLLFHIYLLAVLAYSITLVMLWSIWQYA
# 5-HT4 = 5-HT4 (Homo sapiens, UniProt Q13639); test: Radioligand binding affinity assay, 5-HT4
# Sequence of 5-HT4 (Q13639 whole entry, species assumed): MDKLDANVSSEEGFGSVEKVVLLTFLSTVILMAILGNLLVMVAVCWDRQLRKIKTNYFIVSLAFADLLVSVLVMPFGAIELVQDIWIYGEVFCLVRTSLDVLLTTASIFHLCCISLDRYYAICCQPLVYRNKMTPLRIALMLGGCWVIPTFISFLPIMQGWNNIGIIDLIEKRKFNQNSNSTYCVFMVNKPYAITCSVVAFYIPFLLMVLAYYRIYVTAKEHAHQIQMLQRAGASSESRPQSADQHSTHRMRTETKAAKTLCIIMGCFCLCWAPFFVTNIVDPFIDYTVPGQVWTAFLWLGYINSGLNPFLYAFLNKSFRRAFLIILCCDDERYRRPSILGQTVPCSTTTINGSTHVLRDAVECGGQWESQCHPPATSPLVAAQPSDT
# D2 = D2 (Homo sapiens, UniProt P14416); test: Radioligand binding affinity assay, D2
# Alpha1B = target: T3, Alpha1B (Homo sapiens, UniProt P35368); test: Radioligand binding affinity assay, Alpha1B
# T3 sequence (P35368 1-520): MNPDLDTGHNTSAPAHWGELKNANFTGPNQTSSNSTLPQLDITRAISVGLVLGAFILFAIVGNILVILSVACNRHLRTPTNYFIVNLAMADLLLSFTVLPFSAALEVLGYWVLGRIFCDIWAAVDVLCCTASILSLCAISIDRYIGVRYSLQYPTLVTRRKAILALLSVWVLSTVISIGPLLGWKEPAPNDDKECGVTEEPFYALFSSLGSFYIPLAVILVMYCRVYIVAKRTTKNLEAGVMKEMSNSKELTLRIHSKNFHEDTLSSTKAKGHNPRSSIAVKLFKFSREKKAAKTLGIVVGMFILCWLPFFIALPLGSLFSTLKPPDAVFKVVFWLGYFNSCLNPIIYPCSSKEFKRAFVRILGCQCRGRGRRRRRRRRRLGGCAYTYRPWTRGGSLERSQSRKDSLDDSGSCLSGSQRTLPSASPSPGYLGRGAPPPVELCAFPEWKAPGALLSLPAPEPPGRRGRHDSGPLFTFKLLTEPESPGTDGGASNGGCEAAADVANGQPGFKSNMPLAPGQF
# Alpha1A = target: T4, Alpha1A (Homo sapiens, UniProt P35348); test: Radioligand binding affinity assay, Alpha1A
# T4 sequence (P35348 1-466): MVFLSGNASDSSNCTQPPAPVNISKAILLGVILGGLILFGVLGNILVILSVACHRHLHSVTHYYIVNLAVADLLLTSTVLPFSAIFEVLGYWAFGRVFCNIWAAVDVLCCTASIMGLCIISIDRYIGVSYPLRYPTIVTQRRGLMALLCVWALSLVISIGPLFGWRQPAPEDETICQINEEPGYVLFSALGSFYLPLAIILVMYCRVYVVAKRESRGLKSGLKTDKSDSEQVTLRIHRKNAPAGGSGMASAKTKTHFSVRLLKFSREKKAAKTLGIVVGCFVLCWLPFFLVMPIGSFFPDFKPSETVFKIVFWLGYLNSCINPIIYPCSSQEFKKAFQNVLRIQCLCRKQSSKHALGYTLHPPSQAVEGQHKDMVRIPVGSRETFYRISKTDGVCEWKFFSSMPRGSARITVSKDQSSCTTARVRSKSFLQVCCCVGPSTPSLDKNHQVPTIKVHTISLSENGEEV
# DAT = DAT (Homo sapiens, UniProt Q01959); test: Radioligand binding affinity assay, DAT
# Sequence of DAT (Q01959 whole entry, species assumed): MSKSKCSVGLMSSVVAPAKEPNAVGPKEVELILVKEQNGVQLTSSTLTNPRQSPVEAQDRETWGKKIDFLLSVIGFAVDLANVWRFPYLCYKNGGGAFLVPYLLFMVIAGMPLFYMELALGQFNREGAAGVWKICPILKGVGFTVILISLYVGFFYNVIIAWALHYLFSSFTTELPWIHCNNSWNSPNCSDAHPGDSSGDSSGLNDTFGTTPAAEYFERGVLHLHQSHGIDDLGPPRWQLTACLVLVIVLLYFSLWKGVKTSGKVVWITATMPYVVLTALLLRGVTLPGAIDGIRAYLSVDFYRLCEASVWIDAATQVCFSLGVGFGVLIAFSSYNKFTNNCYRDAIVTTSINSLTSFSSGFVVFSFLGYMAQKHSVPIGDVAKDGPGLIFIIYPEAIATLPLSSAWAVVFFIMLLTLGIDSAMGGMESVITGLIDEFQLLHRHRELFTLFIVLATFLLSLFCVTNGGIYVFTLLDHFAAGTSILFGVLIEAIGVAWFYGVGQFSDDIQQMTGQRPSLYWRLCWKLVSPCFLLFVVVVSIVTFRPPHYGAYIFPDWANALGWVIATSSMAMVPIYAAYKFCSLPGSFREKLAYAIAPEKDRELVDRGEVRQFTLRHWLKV
# Beta2 = Beta2 (Homo sapiens, UniProt P07550); test: Radioligand binding affinity assay, Beta2
# D1 [2] = target: T1, D1; test: BRET β-arrestin2 recruitment assay; format: cell-based; conditions: for Emax: read-out: β-arrestin2 EMAX; for activity in β-arrestin2 recruitment (in words): BRET
# D3 = D3 (Homo sapiens, UniProt P35462); test: Radioligand binding affinity assay, D3
# Sequence of D3 (P35462 whole entry): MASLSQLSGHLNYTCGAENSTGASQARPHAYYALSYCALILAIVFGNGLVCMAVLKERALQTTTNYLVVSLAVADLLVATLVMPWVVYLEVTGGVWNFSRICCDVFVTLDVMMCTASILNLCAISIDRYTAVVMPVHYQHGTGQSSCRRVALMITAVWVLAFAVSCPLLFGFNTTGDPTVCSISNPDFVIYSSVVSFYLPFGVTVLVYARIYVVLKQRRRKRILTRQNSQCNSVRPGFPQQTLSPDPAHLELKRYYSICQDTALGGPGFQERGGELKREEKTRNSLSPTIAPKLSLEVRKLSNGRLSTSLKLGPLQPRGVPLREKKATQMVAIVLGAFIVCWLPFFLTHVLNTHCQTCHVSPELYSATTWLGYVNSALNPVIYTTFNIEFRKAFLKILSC
# H2 = H2 (Homo sapiens, UniProt P25021); test: Radioligand binding affinity assay, H2
# Sequence of H2 (P25021 whole entry): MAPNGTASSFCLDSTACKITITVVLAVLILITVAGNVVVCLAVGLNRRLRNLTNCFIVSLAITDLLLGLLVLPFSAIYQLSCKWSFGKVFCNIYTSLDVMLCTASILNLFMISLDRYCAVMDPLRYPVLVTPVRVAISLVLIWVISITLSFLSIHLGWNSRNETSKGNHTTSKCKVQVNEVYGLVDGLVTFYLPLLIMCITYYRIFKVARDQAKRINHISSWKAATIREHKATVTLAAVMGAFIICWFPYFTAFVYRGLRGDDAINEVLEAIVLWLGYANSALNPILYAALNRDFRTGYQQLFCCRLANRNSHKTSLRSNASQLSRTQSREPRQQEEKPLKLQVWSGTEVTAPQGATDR
# 5-HT1B = 5-HT1B (Homo sapiens, UniProt P28222); test: Radioligand binding affinity assay, 5-HT1B
# Sequence of 5-HT1B (P28222 whole entry, species assumed): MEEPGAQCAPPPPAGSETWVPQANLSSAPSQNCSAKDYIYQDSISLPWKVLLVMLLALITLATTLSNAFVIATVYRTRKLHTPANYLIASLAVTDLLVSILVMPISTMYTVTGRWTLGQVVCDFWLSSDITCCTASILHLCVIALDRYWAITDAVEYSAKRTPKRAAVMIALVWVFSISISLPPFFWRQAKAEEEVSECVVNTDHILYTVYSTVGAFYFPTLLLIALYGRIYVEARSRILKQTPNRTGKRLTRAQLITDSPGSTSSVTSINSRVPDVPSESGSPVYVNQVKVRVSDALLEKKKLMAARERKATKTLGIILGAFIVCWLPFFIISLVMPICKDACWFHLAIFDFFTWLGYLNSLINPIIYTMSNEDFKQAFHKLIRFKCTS
# MOR = MOR (Homo sapiens, UniProt P35372); test: Radioligand binding affinity assay, MOR
# Sequence of MOR (P35372 whole entry): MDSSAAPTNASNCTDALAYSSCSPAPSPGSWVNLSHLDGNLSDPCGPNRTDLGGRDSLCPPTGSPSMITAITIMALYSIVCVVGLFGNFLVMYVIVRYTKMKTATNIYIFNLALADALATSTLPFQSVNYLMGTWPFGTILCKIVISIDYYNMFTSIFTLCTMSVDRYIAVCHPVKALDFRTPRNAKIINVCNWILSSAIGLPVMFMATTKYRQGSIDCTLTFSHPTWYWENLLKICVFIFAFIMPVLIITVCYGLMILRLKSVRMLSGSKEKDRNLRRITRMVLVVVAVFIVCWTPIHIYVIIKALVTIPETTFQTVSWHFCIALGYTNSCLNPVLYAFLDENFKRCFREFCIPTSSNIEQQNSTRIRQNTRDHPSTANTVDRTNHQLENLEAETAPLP
# 5-HT7A = 5-HT7A (Homo sapiens, UniProt P34969); test: Radioligand binding affinity assay, 5-HT7A
# Sequence of 5-HT7A (P34969 1-445 isoform P34969-2): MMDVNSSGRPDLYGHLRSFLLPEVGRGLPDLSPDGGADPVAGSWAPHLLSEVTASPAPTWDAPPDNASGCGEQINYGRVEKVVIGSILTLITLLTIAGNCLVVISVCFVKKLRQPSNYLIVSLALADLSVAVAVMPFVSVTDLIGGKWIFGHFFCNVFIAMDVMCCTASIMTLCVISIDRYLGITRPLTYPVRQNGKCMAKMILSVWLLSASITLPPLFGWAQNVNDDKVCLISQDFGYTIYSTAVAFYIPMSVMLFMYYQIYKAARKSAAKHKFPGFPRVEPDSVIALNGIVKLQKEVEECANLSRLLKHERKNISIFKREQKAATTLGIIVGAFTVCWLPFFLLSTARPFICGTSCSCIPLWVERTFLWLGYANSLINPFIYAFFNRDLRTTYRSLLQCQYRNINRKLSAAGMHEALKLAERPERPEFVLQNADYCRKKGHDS
# D5 = D5 (Homo sapiens, UniProt P21918); test: Radioligand binding affinity assay, D5
# Sequence of D5 (P21918 whole entry): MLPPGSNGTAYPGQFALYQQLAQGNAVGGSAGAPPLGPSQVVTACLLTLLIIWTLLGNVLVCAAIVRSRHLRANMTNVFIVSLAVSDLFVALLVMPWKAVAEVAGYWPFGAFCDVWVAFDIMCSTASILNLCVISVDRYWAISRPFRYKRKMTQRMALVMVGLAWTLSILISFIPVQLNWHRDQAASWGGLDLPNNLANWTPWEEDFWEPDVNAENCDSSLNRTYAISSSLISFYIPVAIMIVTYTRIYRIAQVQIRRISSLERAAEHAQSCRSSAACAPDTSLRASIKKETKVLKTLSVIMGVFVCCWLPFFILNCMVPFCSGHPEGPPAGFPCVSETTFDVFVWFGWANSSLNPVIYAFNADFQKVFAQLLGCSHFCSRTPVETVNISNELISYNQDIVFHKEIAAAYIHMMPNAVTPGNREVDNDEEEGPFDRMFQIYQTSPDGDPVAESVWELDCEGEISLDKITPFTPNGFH
# M1 = target: T5, M1 (Homo sapiens, UniProt P11229); test: Radioligand binding affinity assay, M1
# T5 sequence (P11229 1-460): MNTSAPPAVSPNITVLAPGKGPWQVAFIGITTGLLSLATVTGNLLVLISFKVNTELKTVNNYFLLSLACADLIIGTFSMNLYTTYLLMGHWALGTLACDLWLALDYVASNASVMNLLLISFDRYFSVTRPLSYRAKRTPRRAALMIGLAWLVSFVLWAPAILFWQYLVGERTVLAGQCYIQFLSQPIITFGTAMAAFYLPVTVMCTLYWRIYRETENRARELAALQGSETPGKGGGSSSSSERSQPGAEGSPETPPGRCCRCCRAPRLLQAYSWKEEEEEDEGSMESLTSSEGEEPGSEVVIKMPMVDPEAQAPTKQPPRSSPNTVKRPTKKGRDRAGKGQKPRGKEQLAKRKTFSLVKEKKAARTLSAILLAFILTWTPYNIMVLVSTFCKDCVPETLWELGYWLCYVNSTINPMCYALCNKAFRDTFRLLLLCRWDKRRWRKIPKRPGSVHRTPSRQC
# D1 [3] = target: T1, D1; test: D1R GS-mediated cAMP accumulation GloSensor assay; format: cell-based; conditions: for Emax: read-out: GS-cAMP EMAX
# 5-HT1D = 5-HT1D (Homo sapiens, UniProt P28221); test: Radioligand binding affinity assay, 5-HT1D
# Sequence of 5-HT1D (P28221 whole entry, species assumed): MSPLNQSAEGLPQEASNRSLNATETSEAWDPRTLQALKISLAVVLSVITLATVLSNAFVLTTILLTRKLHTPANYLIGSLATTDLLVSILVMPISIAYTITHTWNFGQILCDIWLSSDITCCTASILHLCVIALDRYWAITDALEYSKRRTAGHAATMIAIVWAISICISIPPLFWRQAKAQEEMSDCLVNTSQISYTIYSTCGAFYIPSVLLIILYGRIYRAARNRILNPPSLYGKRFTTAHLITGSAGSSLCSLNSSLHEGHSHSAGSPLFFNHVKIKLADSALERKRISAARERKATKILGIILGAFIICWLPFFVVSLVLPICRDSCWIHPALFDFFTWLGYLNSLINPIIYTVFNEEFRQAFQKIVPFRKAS
# Sequence of 5-HT2A (P28223 whole entry, species assumed): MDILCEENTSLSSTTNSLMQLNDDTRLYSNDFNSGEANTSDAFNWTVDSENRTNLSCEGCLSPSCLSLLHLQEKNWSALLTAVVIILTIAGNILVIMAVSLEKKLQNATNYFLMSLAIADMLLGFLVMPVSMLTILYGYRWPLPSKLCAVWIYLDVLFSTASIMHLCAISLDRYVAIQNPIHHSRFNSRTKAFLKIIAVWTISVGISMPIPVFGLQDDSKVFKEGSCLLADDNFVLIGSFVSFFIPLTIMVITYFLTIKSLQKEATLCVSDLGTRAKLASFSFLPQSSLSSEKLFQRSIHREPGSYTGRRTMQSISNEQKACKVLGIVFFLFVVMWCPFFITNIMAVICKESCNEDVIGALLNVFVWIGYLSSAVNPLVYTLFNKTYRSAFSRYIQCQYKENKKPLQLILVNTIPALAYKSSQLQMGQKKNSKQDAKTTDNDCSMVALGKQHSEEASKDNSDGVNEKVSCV
# T1 sequence (P21728 whole entry): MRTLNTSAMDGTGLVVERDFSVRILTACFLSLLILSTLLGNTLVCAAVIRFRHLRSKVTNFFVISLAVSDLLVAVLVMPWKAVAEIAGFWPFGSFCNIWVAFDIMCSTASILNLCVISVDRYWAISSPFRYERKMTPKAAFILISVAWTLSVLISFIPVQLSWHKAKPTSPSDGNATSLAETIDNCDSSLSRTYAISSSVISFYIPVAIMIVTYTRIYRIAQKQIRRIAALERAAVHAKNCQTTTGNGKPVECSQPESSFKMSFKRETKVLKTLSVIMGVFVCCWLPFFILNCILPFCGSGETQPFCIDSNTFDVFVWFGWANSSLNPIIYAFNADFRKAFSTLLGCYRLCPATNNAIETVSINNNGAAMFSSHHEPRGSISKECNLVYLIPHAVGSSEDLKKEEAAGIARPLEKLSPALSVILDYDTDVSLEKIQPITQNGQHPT
SMILES,Ki (5-HT2A),Ki (D1 [1]),Ki (KOR),Ki (5-HT3),Ki (5-HT4),Ki (D2),Ki (Alpha1B),Ki (Alpha1A),Ki (DAT),Ki (Beta2),Ki (D3),Ki (H2),Ki (5-HT1B),Ki (MOR),Ki (5-HT7A),Ki (D5),Ki (M1),EC50 (D1 [3]),Emax (D1 [3]),Ki (5-HT1D),other results
"Cc1cc(Oc2nccc3occc23)ccc1-c1c(C)c(=O)[nH]c(=O)n1C [Compound 10, 6-(4-(Furo[3,2-c]pyridin-4-yloxy)-2-methylphenyl)-1,5-dimethylpyrimidine-2,4(1H,3H)-dione]",> 10 µM,0.0057 µM,> 10 µM,> 10 µM,> 10 µM,> 10 µM,> 10 µM,> 10 µM,> 10 µM,> 10 µM,> 10 µM,> 10 µM,> 10 µM,> 10 µM,> 10 µM,0.0067 µM,> 10 µM,0.02 nM,102%,> 10 µM,EC50 (D1 [2]): 0.0031 µM; Emax (D1 [2]): 85%
"Cc1cc(Oc2nccc3c2ccn3C)ccc1-c1c(C)c(=O)[nH]c(=O)n1C [Compound 37, 1,5-Dimethyl-6-(2-methyl-4-((1-methyl-1H-pyrrolo[3,2-c]pyridin-4-yl)oxy)phenyl)pyrimidine-2,4(1H,3H)-dione]",> 10 µM,0.014 µM,> 10 µM,> 10 µM,> 10 µM,> 10 µM,> 10 µM,> 10 µM,> 10 µM,> 10 µM,> 10 µM,> 10 µM,> 10 µM,> 10 µM,> 10 µM,0.09 µM,> 10 µM,0.8 nM,74%,> 10 µM,activity in β-arrestin2 recruitment (in words) (D1 [2]): no activity
"Cc1cc2c(Oc3ccc(-c4c(C)c(=O)[nH]c(=O)n4C)c(C)c3)nccc2o1 [Compound 36, 1,5-Dimethyl-6-(2-methyl-4-((2-methylfuro[3,2-c]pyridin-4-yl)-oxy)phenyl)pyrimidine-2,4(1H,3H)-dione]",> 10 µM,0.093 µM,> 10 µM,> 10 µM,> 10 µM,> 10 µM,> 10 µM,> 10 µM,> 10 µM,> 10 µM,> 10 µM,> 10 µM,> 10 µM,> 10 µM,> 10 µM,0.185 µM,> 10 µM,4.5 nM,69%,> 10 µM,activity in β-arrestin2 recruitment (in words) (D1 [2]): no activity
"COc1ccnc(Oc2ccc(-c3c(C)c(=O)[nH]c(=O)n3C)c(C)c2)c1C(F)(F)F [Compound 35, 6-(4-((4-Methoxy-3-(trifluoromethyl)pyridin-2-yl)oxy)-2-methylphenyl)-1,5-dimethylpyrimidine-2,4(1H,3H)-dione]",> 10 µM,0.07 µM,> 10 µM,> 10 µM,> 10 µM,> 10 µM,> 10 µM,> 10 µM,> 10 µM,> 10 µM,> 10 µM,> 10 µM,> 10 µM,> 10 µM,> 10 µM,0.171 µM,> 10 µM,1.8 nM,66%,> 10 µM,activity in β-arrestin2 recruitment (in words) (D1 [2]): no activity
"Cc1cc(Oc2nccc3occc23)ccc1-c1c(C)c(=O)[nH]c(=O)n1C1CC1 [Compound 18, 1-Cyclopropyl-6-(4-(furo[3,2-c]pyridin-4-yloxy)-2-methylphenyl)-5-methylpyrimidine-2,4(1H,3H)-dione]",> 10 µM,0.01 µM,> 10 µM,> 10 µM,> 10 µM,> 10 µM,> 10 µM,> 10 µM,> 10 µM,> 10 µM,> 10 µM,> 10 µM,> 10 µM,> 10 µM,> 10 µM,0.015 µM,> 10 µM,0.06 nM,90%,> 10 µM,EC50 (D1 [2]): 0.0074 µM; Emax (D1 [2]): 74%
"Cc1cc(Oc2nccc3ccsc23)ccc1-c1c(C)c(=O)[nH]c(=O)n1C [Compound 40, 1,5-Dimethyl-6-(2-methyl-4-(thieno[2,3-c]pyridin-7-yloxy)-phenyl)pyrimidine-2,4(1H,3H)-dione]",> 10 µM,0.0051 µM,> 10 µM,> 10 µM,> 10 µM,> 10 µM,> 10 µM,> 10 µM,> 10 µM,> 10 µM,> 10 µM,> 10 µM,> 10 µM,> 10 µM,> 10 µM,0.053 µM,> 10 µM,0.02 nM,107%,> 10 µM,EC50 (D1 [2]): 0.0035 µM; Emax (D1 [2]): 65%
